In PubChem BioAssay (NCI):
Values joined by “and” are separate entries in the source; they are usually repeats but may differ in a detail not shown here. Identical values can stand only once.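 Results reflect a 48-hour exposure of cells in 96-well plates to compound at five concentrations. GI50 is the concentration that inhibits growth by half. TGI: concentration producing complete growth inhibition.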

Key:
Experiment in all cases: growth of human tumour cells (NCI), 48 h
COLO 205 colon = tested on: COLO 205 colon
HCT-15 colon = tested on: HCT-15 colon
HL-60(TB) leukemia = tested on: HL-60(TB) leukemia
HOP-62 NSCLC = tested on: HOP-62 NSCLC
HOP-92 NSCLC = tested on: HOP-92 NSCLC
MCF7 breast = tested on: MCF7 breast
OVCAR-5 ovarian = tested on: OVCAR-5 ovarian
SK-MEL-2 melanoma = tested on: SK-MEL-2 melanoma
SN12C renal = tested on: SN12C renal
TK-10 renal = tested on: TK-10 renal

Row | Compound | GI50 (COLO 205 colon) | TGI (COLO 205 colon) | GI50 (HCT-15 colon) | TGI (HCT-15 colon) | GI50 (HL-60(TB) leukemia) | TGI (HL-60(TB) leukemia) | GI50 (HOP-62 NSCLC) | TGI (HOP-62 NSCLC) | GI50 (HOP-92 NSCLC) | TGI (HOP-92 NSCLC) | GI50 (MCF7 breast) | TGI (MCF7 breast) | GI50 (OVCAR-5 ovarian) | TGI (OVCAR-5 ovarian) | GI50 (SK-MEL-2 melanoma) | TGI (SK-MEL-2 melanoma) | GI50 (SN12C renal) | TGI (SN12C renal) | GI50 (TK-10 renal) | TGI (TK-10 renal)
1 | CN(C)c1ccc(/C=N/n2c(CCCCc3n[nH]c(=S)n3/N=C/c3ccc(N(C)C)cc3)n[nH]c2=S)cc1 | > 100 µM | > 100 µM | > 100 µM | > 100 µM | > 100 µM | > 100 µM | 66.8 µM | > 100 µM | > 100 µM | > 100 µM | > 100 µM | > 100 µM | > 100 µM | > 100 µM | > 100 µM | > 100 µM | > 100 µM | > 100 µM | > 100 µM | > 100 µM
2 | O=C1c2c(c3c4ccccc4n(CCCCCCN4CCOCC4)c3c3[nH]c4ccccc4c23)C(=O)N1O | 4.74 µM | 21.9 µM | 3.03 µM | 12.2 µM | 2.49 µM | 8.22 µM | 18.2 µM | 55.2 µM | 13.2 µM | 38.3 µM | 2.07 µM | 7.73 µM | > 49.3 µM | > 75.8 µM | 19.5 µM | 46 µM | 6.86 µM | 26.4 µM | 26.2 µM | 54.8 µM
3 | O=c1oc2ccc(I)cc2c(=O)n1-c1ccc(I)cc1F | 4.88 µM | 17.8 µM | 0.704 µM | 10.5 µM | 0.564 µM |  | 2.36 µM | 9.46 µM | 0.169 µM | 0.544 µM | 1.08 µM | 11.3 µM | 3.93 µM | > 100 µM | 0.391 µM | 2.55 µM | 0.404 µM | 6.49 µM | 1.42 µM | 11.8 µM
4 | C#Cc1cccc(Nc2ncnc3ccc(-c4cnc(N)nc4)cc23)c1 | 2.99 µM | 13.8 µM | 2.55 µM | 13.2 µM | 2.59 µM | 11 µM | 1.98 µM | 12.4 µM | 0.211 µM | 3.15 µM | 1.8 µM | 12.2 µM | 1.33 µM | 14.6 µM | 2.11 µM | 5.72 µM | 1.81 µM | 12.7 µM | 0.286 µM | 3.2 µM
5 | CC[C@H](C)C(=O)O[C@H]1CCC=C2C=C[C@H](C)[C@H](CC[C@@H]3C[C@@H](O)CC(=O)O3)[C@H]21 |  | 82 µM | 2.52 µM | > 100 µM | 17.1 µM | 76.5 µM | 12.4 µM | > 100 µM | 0.135 µM | 0.706 µM | > 42.5 µM | > 100 µM | 14.4 µM | > 100 µM | 1.77 µM | 11.7 µM | 3.88 µM | > 100 µM | 22.5 µM | > 100 µM
6 | CCOC1Oc2ccccc2C(=O)/C1=C\Nc1ccc(C(=O)O)c(O)c1 (stereo unspecified) | 23.9 µM | 56.5 µM | 16.4 µM | 45.9 µM | 32.7 µM | > 100 µM | 32.4 µM | > 100 µM | 19.6 µM | 60.6 µM | 29.9 µM | > 100 µM | 43.2 µM | > 100 µM | 46.7 µM | > 100 µM | 16.5 µM | 36.7 µM | 22.8 µM | 61.3 µM
7 | Cc1cnc(-c2ccc(-c3ccc(NC(=O)Nc4cccc(C(F)(F)F)c4)cc3F)c3c2C(=O)NC3)[nH]1 | 0.0469 µM | 20.2 µM | 6.19 µM | 33.6 µM | 43.4 µM | > 100 µM | 3.55 µM | > 50 µM | 0.438 µM | 28.6 µM | 2.04 µM | 25.3 µM | 28.4 µM | > 59.8 µM | 14.9 µM | 36.8 µM | 0.304 µM | 35.3 µM | 15.5 µM | > 58.5 µM
8 | CCc1c2c(nc3ccc(OC(=O)OCc4ccc(B5OC(C)(C)C(C)(C)O5)cc4)cc13)-c1cc3c(c(=O)n1C2)COC(=O)[C@]3(O)CC | 0.0804 µM | 24.5 µM | 0.127 µM | > 100 µM | 0.0121 µM | 22.3 µM | < 0.01 µM | 3.27 µM | 0.0269 µM | 14.4 µM | < 0.01 µM | > 100 µM | 0.114 µM | 6.23 µM | 0.326 µM | 8.57 µM | < 0.01 µM | > 54.7 µM | 0.88 µM | > 100 µM
9 | CCCCNP1(NCCCC)=NP(NCCCC)(NCCCC)=NP(NCCCC)(NCCCC)=NP(NCCCC)(NCCCC)=N1 | 0.301 µM | 0.848 µM | 21.2 µM | 99.5 µM | 0.098 µM | 0.888 µM | 1.85 µM | 6.25 µM | 0.0514 µM | 0.917 µM | 0.356 µM | 3.52 µM | 1.61 µM | 9.81 µM | 0.922 µM | 3.51 µM | 0.331 µM | 12.5 µM | 0.933 µM | 13 µM
10 | COc1ccc(C2CC(c3ccc4ccccc4c3)=NN2c2nc(O)c(C3=c4cc(Cl)ccc4=NC3=O)s2)cc1 (stereo unspecified) | 0.0221 µM | 0.0503 µM | 0.0342 µM | 0.229 µM | 0.171 µM |  | 0.025 µM and < 0.005 µM |  | 0.0168 µM and < 0.005 µM |  | 0.0292 µM and < 0.005 µM |  | 0.0263 µM and < 0.005 µM |  | 0.0263 µM and < 0.005 µM |  | 0.0264 µM and < 0.005 µM |  | 0.0195 µM and < 0.005 µM | 
11 | CC(=O)OCC1OC([S-])C(OC(C)=O)C(OC(C)=O)C1OC(C)=O.[Au+].c1ccc(CN2[CH-]N(Cc3ccccc3)C(c3ccccc3)=C2c2ccccc2)cc1 | 3.59 µM and 0.881 µM | 14.3 µM and 2.27 µM | 1.8 µM and 0.906 µM | 3.68 µM and 2 µM | 2.57 µM and 0.573 µM | 7.57 µM and 2.35 µM | 4.56 µM and 1.11 µM | 19.4 µM and 4.59 µM |  | 3.93 µM and 0.437 µM | 1.65 µM and 0.827 µM | 3.52 µM and 2.04 µM | 3.35 µM and 0.783 µM | 11.9 µM and 3.1 µM | 2.77 µM and 0.656 µM | 8.11 µM and 2.2 µM |  | 5.08 µM and 1.18 µM | 2.66 µM and 0.796 µM | 8.34 µM and 3.8 µM
12 | CN(CO)c1nc(N(C)CO)nc(N(C)CO)n1 | 20.9 µM | 44.1 µM and 20.9 µM | 25.8 µM | 65.5 µM and 37.1 µM | 26 µM | 75.1 µM and 16.5 µM | 42.6 µM | > 90.7 µM and 56.7 µM | 29.9 µM and 27.3 µM | 64.9 µM and 64.1 µM | 32 µM | 99.1 µM and 56.4 µM |  | 63 µM and > 73.8 µM | 15.5 µM and 5.47 µM | 32.1 µM and 11.2 µM | 27.6 µM and 19.5 µM | 70.5 µM and 57.8 µM |  | 82.9 µM and 77.4 µM
13 | COc1ccc2c(c1)C(=O)/C(=C/c1cccc(OCC(=O)c3ccc([N+](=O)[O-])cc3)c1)CO2 | 2.74 µM | 6.33 µM | 2.17 µM | 6.92 µM | 2.34 µM | 12.8 µM | 2.13 µM | 5.35 µM | 3.16 µM | 15.8 µM | 0.72 µM | 3.68 µM | 2.34 µM | 5.08 µM | 1.64 µM | 4.2 µM | 2.92 µM | 11.4 µM | 2.97 µM | 7.49 µM
14 | N#Cc1ccc(C(=O)c2cnn(-c3ccc(F)cc3)c2N)cc1 | > 25 µM | > 25 µM | > 25 µM | > 25 µM | > 25 µM | > 25 µM | > 25 µM | > 25 µM | > 25 µM | > 25 µM | > 25 µM | > 25 µM | > 25 µM | > 25 µM | > 25 µM | > 25 µM | > 25 µM | > 25 µM | > 25 µM | > 25 µM
15 | CSc1nc(SC)c2c(C)c(Br)[nH]c2n1 |  | > 100 µM |  | > 100 µM |  | > 100 µM |  | > 100 µM |  | > 100 µM |  | > 100 µM |  | > 100 µM |  | > 100 µM |  | > 100 µM |  | > 100 µM
16 | CCCCCCCCCCCCCC(=O)NO |  | 20.1 µM |  | 26.2 µM |  | 23.7 µM |  | 34.6 µM |  | 43.6 µM |  | > 100 µM |  | > 74.1 µM |  | 47.6 µM |  | 38.9 µM |  | 59.4 µM
17 | Cn1c2ccccc2c2c(=O)n(CCCC(=O)NCCc3cnc[nH]3)c3c(-c4ccccc4)nnn3c21 | 8.51 µM | 19.6 µM | 14.6 µM | 44.1 µM | 11.8 µM | 28.4 µM | 7.67 µM | 16.9 µM | 1.35 µM | 5.48 µM | 13 µM | 30.3 µM | 10.8 µM | 20.3 µM | 10.3 µM | 21 µM | 8.76 µM | 18.7 µM | 4.8 µM | 11.5 µM
18 | Fc1ccc(-c2c(-c3ccncc3)[nH]c3cccnc23)cc1 | 18.6 µM | > 25 µM | 15.4 µM | > 25 µM | > 25 µM | > 25 µM | > 25 µM | > 25 µM | 22.3 µM | > 25 µM | 13.8 µM | > 25 µM | > 25 µM | > 25 µM | > 25 µM | > 25 µM | 18.8 µM | > 25 µM | 3.02 µM | > 25 µM
19 | CN(CCCCCCCCNc1ccnc2ccccc12)Cc1ccc(-c2ccc(-c3ccc(C#N)cc3)s2)cc1 | 0.63 µM | 2.17 µM | 0.266 µM | 1.37 µM | 1.15 µM | 2.93 µM | 0.685 µM | 2.5 µM | 0.337 µM | 2.53 µM | 0.183 µM | 0.533 µM | 1.39 µM | 2.73 µM | 1.85 µM | 3.83 µM | 1.37 µM | 3 µM | 1.57 µM | 3.18 µM
20 | CCCCCCCCCCCCSC1=CC(=O)C=CC1=O | 20.9 µM | > 36.2 µM | 1.92 µM | > 32.4 µM | 0.353 µM | 2.43 µM | 9.23 µM | > 35 µM | 2.56 µM | 12.6 µM | 2.22 µM | > 50 µM | 11.8 µM | > 42 µM | 7.5 µM | 19.4 µM | 3.24 µM | 24.7 µM | 16.3 µM | 37.4 µM
